Columns and labels:
[1] = Ring tensiometer
[2] = xn = mol fraction of the nth substance listed; conditions: Ring tensiometer

CCCCn1cc[n+](C)c1.F[B-](F)(F)F [1-butyl-3-methylimidazolium tetrafluoroborate]
[1]
Conditions	surface tension liquid-gas [mN/m]
298.15 K	44.6
308.15 K	43.65
318.15 K	42.95
328.15 K	42.25
338.15 K	41.55

CCCCn1cc[n+](C)c1.F[B-](F)(F)F [1-butyl-3-methylimidazolium tetrafluoroborate] + O
surface tension liquid-gas [mN/m], [2]
Conditions	x1 = 0.02	x1 = 0.04	x1 = 0.06	x1 = 0.08	x1 = 0.1	x1 = 0.2	x1 = 0.4	x1 = 0.6	x1 = 0.8	x1 = 1
298.15 K	49.07	47.16	47.05	46.95	46.8	46.3	45.9	45.4	45	44.6
308.15 K	48.15	45.95	45.85	45.75	45.65	45.45	44.95	44.55	44.35	43.65
318.15 K	47.35	45.15	45.05	44.95	44.85	44.65	44.15	43.75	43.55	42.95
328.15 K	46.55	44.35	44.25	44.15	44.05	43.85	43.35	42.95	42.75	42.25
338.15 K	45.75	43.55	43.45	43.35	43.25	43.05	42.55	42.15	41.95	41.55

CCn1cc[n+](C)c1.F[B-](F)(F)F [1-ethyl-3-methylimidazolium tetrafluoroborate]
[1]
Conditions	surface tension liquid-gas [mN/m]
298.15 K	52.05
308.15 K	51.65
318.15 K	51.25
328.15 K	50.85
338.15 K	50.45

CCn1cc[n+](C)c1.F[B-](F)(F)F [1-ethyl-3-methylimidazolium tetrafluoroborate] + O
surface tension liquid-gas [mN/m], [2]
Conditions	x1 = 0.02	x1 = 0.04	x1 = 0.06	x1 = 0.08	x1 = 0.1	x1 = 0.2	x1 = 0.4	x1 = 0.6	x1 = 0.8	x1 = 1
298.15 K	60.27	57.47	56.49	55.52	54.98	53.92	53.61	53.23	52.73	52.05
308.15 K	59.07	56.47	55.69	54.82	54.38	53.52	53.21	52.83	52.33	51.65
318.15 K	57.87	55.47	54.89	54.12	53.78	53.12	52.81	52.43	51.93	51.25
328.15 K	56.67	54.47	54.09	53.42	53.18	52.72	52.41	52.03	51.53	50.85
338.15 K	55.47	53.47	53.29	52.72	52.58	52.32	52.01	51.63	51.13	50.45

CCCCCCn1cc[n+](C)c1.F[B-](F)(F)F [1-hexyl-3-methylimidazolium tetrafluoroborate]
[1]
Conditions	surface tension liquid-gas [mN/m]
298.15 K	37.22
308.15 K	36.62
318.15 K	35.92
328.15 K	35.22
338.15 K	34.52

CCCCCCn1cc[n+](C)c1.F[B-](F)(F)F [1-hexyl-3-methylimidazolium tetrafluoroborate] + O
surface tension liquid-gas [mN/m], [2]
Conditions	x1 = 0.3	x1 = 0.4	x1 = 0.5	x1 = 0.6	x1 = 0.7	x1 = 0.8	x1 = 0.9	x1 = 1
298.15 K	38.1	37.7	37.54	37.42	37.33	37.26	37.23	37.22
308.15 K	37.26	37.08	36.84	36.82	36.73	36.66	36.63	36.62
318.15 K	36.56	36.28	36.34	36.12	36.03	35.86	35.93	35.92
328.15 K	35.96	35.68	35.64	35.42	35.33	35.26	35.23	35.22
338.15 K	35.26	34.98	34.84	34.72	34.63	34.56	34.53	34.52

O [water]
[1]
Conditions	surface tension liquid-gas [mN/m]
298.15 K	71.8
308.15 K	70.1
318.15 K	68.4
328.15 K	66.7
338.15 K	65

O [water] + CCCCCCn1cc[n+](C)c1.F[B-](F)(F)F
[2], x2 = 0
Conditions	surface tension liquid-gas [mN/m]
298.15 K	71.8
308.15 K	70.1
318.15 K	68.4
328.15 K	66.7
338.15 K	65

O [water] + CCCCn1cc[n+](C)c1.F[B-](F)(F)F
[2], x2 = 0
Conditions	surface tension liquid-gas [mN/m]
298.15 K	71.8
308.15 K	70.1
318.15 K	68.4
328.15 K	66.7
338.15 K	65

O [water] + CCn1cc[n+](C)c1.F[B-](F)(F)F
[2], x2 = 0
Conditions	surface tension liquid-gas [mN/m]
298.15 K	71.8
308.15 K	70.1
318.15 K	68.4
328.15 K	66.7
338.15 K	65

— the NIST ThermoML archive (doi:10.1016/j.tca.2019.01.018)
